# Experimental data from patent US7576053B2, “Methods and compositions for treating degenerative bone disorders” (Rigel Pharmaceuticals, Inc., priority 2005, dated 2009).
# Legend:
# Type in all cases: in vivo
# [1] = tested on: rat collagen induced arthritis (CIA) model; assay: Rat collagen induced arthritis (CIA) model, hindlimb radiographs scored blindly; conditions: b.i.d., 18 days of treatment
# Text: Data are the means±standard error, where n=13 per group, except for naïve (n=4). Radiographs of hindlimbs were obtained at the conclusion of the study and scored blindly. […] To examine effect of Syk inhibitor 2,4-pyrimidinediamine compound in preventing bone degeneration, a rat collagen induced arthritis model was used (see, e.g., WO 2004/014382, incorporated herein by reference). Rats were immunized with bovine collagen II on day 0 and boosted on day 7. […] Animals were subsequently treated b.i.d. with inhibitor compound or vehicle alone. After 18 days of treatment, hind paw bone structure and integrity were evaluated by X-rays, histopathology, and serum bone marker COMP.
# [2] = tested on: rat collagen induced arthritis (CIA) model; assay: Rat CIA model, histopathology of hind paw bone sections (safranin-O)
# Text: Upper left—naïve rat; upper right—vehicle rat; lower left—vehicle rat; lower right—compound 1007 treated rat. Micrographs are safranin-O stained sections of hind ankle paws of CIA rats, magnification 40×. To examine effect of Syk inhibitor 2,4-pyrimidinediamine compound in preventing bone degeneration, a rat collagen induced arthritis model was used (see, e.g., WO 2004/014382, incorporated herein by reference). Rats were immunized with bovine collagen II on day 0 and boosted on day 7. […] Animals were subsequently treated b.i.d. with inhibitor compound or vehicle alone. After 18 days of treatment, hind paw bone structure and integrity were evaluated by X-rays, histopathology, and serum bone marker COMP.
# [3] = tested on: cartilage oligometrix matrix protein (COMP); assay: Rat CIA model, serum bone marker COMP; conditions: FIG. 4
# Protocol: To examine effect of Syk inhibitor 2,4-pyrimidinediamine compound in preventing bone degeneration, a rat collagen induced arthritis model was used (see, e.g., WO 2004/014382, incorporated herein by reference). Rats were immunized with bovine collagen II on day 0 and boosted on day 7. […] Animals were subsequently treated b.i.d. with inhibitor compound or vehicle alone. After 18 days of treatment, hind paw bone structure and integrity were evaluated by X-rays, histopathology, and serum bone marker COMP.
structure (smiles),measurement,setting,value
"COc1cc(Nc2ncc(F)c(Nc3ccc4c(n3)NC(=O)C(C)(C)O4)n2)cc(OC)c1OC [compound 1007, N4-(2,2-dimethyl-3-oxo-4H-5-pyrid[1,4]oxazin-6-yl)-5-fluoro-N2-(3,4,5-trimethoxyphenyl)-2,4-pyrimidinediamine]",bone erosion (radiograph score of hind paws),"[1]; 10 mg/kg, p<0.05",significant reduction in bone erosion
same,bone erosion (radiograph score of hind paws),"[1]; 30 mg/kg, p<0.001",significant reduction in bone erosion
same,severity of bone destruction (histopathological assessment of bone sections),[2]; FIG. 2,significant reduction in severity of bone destruction
same,bone erosion (safranin-O stained sections of hind ankle paws),"[2]; FIG. 3, magnification 40x",reduction
same,osteoclast activity (safranin-O stained sections of hind ankle paws),"[2]; FIG. 3, magnification 40x",reduction
same,pannus formation (safranin-O stained sections of hind ankle paws),"[2]; FIG. 3, magnification 40x",reduction
same,"serum levels of cartilage oligometrix matrix protein (COMP), a marker for collagen destruction",[3],reduction
